This is an account of results in ChEMBL document CHEMBL4000250, “Synthesis of new derivatives of 21-imidazolyl-16-dehydropregnenolone as inhibitors of 5α-reductase 2 and with cytotoxic activity in cancer cells” (Bioorg Med Chem, 2017).

The target of one data set is T1, Androgen receptor (Rattus norvegicus, UniProt P15207).
T1 sequence (P15207 whole entry): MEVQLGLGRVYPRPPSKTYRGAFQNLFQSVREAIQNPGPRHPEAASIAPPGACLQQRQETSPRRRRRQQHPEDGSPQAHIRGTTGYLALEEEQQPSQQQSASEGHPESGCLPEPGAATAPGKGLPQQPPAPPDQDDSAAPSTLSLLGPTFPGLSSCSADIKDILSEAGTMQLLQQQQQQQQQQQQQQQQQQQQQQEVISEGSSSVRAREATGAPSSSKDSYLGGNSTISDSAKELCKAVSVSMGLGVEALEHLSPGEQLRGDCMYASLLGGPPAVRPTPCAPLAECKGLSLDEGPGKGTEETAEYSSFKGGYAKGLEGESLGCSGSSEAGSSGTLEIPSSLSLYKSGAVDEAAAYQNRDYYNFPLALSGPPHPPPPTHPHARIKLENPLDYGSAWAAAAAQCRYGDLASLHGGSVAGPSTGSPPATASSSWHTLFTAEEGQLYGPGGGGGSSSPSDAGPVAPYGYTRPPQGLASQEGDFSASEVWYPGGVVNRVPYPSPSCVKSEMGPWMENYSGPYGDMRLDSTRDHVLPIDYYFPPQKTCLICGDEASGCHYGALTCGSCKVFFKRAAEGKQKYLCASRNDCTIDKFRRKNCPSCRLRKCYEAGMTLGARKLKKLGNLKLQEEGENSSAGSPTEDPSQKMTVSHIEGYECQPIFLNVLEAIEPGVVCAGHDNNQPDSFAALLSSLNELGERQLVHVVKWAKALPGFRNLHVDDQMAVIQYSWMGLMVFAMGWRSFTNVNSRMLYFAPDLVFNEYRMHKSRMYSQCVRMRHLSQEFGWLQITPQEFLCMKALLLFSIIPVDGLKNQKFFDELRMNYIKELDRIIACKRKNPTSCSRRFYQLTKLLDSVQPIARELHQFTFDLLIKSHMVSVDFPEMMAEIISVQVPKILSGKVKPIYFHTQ
The data set can be described thus: (§1) Displacement of [3H]-MIB from rat prostate cytosolic androgen receptor by liquid scintillation counting method.

In data set [1] the target is T2, 3-oxo-5-alpha-steroid 4-dehydrogenase 1 (Rattus norvegicus, UniProt P24008).
T2 sequence (P24008 whole entry): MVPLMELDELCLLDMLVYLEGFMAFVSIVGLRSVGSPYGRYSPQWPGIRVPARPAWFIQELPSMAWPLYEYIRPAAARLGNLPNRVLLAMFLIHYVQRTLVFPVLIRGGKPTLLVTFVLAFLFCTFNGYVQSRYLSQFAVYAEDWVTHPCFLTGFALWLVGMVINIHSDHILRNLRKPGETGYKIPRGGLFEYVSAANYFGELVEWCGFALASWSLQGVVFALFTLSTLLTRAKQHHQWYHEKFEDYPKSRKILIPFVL
The data set can be described thus: Inhibition of rat liver microsomal 5-alpha reductase 1 assessed as decrease in conversion of testosterone to dihydrotestosterone by chromatographic method. Background: Microsomes from liver hold many membrane-bound enzymes, among them those of drug oxidation.

The target of data set [2] is T3, 3-oxo-5-alpha-steroid 4-dehydrogenase 2 (Homo sapiens, UniProt P31213).
T3 sequence (P31213 whole entry): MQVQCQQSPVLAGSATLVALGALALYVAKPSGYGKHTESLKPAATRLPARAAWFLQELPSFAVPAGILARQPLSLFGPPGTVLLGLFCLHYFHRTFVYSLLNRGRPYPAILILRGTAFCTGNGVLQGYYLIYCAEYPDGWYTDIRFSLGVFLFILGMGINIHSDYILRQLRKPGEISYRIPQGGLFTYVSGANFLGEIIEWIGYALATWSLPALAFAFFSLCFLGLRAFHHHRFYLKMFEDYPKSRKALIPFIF
Description: Inhibition of human prostate 5-alpha reductase 2 assessed as decrease in conversion of testosterone to dihydrotestosterone by chromatographic method.

The target in data set [3] is T4, Androgen receptor (Rattus norvegicus) (UniProt P15207).
T4 sequence (whole entry): T1 sequence (P15207 whole entry)
Described as §1.

The test system of the next data set is PC-3. The data set can be described thus: Cytotoxicity against human PC3 cells assessed as growth inhibition at 50 uM after 48 hrs by sulforhodamine B assay relative to control. Format: functional. For orientation: The SRB assay estimates cell density from bound dye.
For a further data set, the system named is MCF7. The data set can be described thus: Cytotoxicity against human MCF7 cells assessed as growth inhibition at 50 uM after 48 hrs by sulforhodamine B assay relative to control. Format: functional.
A further data set deals with SK-LU-1. Description: Cytotoxicity against human SKLU1 cells assessed as growth inhibition at 50 uM after 48 hrs by sulforhodamine B assay relative to control. Format: functional.
Data set [4] has as its system Syrian golden hamster. Description: Hyperplasia activity in castrated golden hamster assessed as prostate weight at 2 mg/kg, sc co-administered with testosterone for 6 days (reference value: 98 +/- 12.6 mg). Format: functional, Mesocricetus auratus.
The subject of data set [5] is Syrian golden hamster. Description: Hyperplasia activity in castrated golden hamster assessed as seminal vesicles weight at 2 mg/kg, sc co-administered with testosterone for 6 days (reference value: 200.6 +/- 55 mg). Format: functional, Mesocricetus auratus.
Data set [6] has as its system Syrian golden hamster. The data set can be described thus: Hyperplasia activity in castrated golden hamster assessed as diameter of pigmented spot of flank organs at 2 mg/kg, sc administered for 6 days (reference value: 5.65 +/- 1.12 mm). Format: functional, Mesocricetus auratus.
In data set [7] the test system is Syrian golden hamster. Description: Toxicity in castrated golden hamster at 2 mg/kg, sc co-administered with testosterone for 6 days. The conditions noted are these: in vivo, 144 h. Format: organism-based, Mesocricetus auratus.

Active and inactive are the calls of the source. The rule behind the calls is not given here.

Take `C[C@@H]1CC2=CC(=O)CC[C@@H]2[C@H]2CC[C@@]3(C)[C@@H](CC[C@]3(C)O)[C@@H]21` [MIBOLERONE]: the IC50 (usually the concentration at which inhibition is half-maximal) at Androgen receptor was found to be 1 nM.

Consider `C[C@]12CC[C@H](OC(=O)C3CCCCCC3)CC1=CC[C@@H]1[C@@H]2CC[C@]2(C)C(C(=O)Cn3ccnc3)=CC[C@@H]12`, for which the IC50 entry in data set [1] and in data set [2] was “Not Active” throughout. Besides, in data set [3], the inhibition entry is “inactive”. Moreover, the “growth inhibition (GI)” value with PC-3, in the data set on MCF7 and with SK-LU-1 was “inactive” each time. For the same compound, the Activity in the data set on Syrian golden hamster [4] is recorded as 70.8 mg; in the data set on Syrian golden hamster [5], 143.6 mg; in the data set on Syrian golden hamster [6] it was 2.8 mm; in the data set on Syrian golden hamster [7], “Non-Toxic”.

Take `CCCC(=O)O[C@H]1CC[C@@]2(C)C(=CC[C@@H]3[C@@H]2CC[C@]2(C)C(C(=O)Cn4ccnc4)=CC[C@@H]32)C1`: the IC50 result in data set [1] and in data set [2] was “Not Active” in each case. For the same compound, the inhibition result in [3] is “inactive”. For the same compound, the inhibition of growth at 50 µM with PC-3 (PC-3, 48 h, read-out: GI) worked out at 0%; in the data set with MCF7 (MCF7, 48 h, read-out: GI), 0%; with SK-LU-1 (SK-LU-1, 48 h, read-out: GI), 25.2%. Also, the Activity in the data set on Syrian golden hamster [4] was 83.43 mg; with Syrian golden hamster [5] it was 217.45 mg; with Syrian golden hamster [6], 1.98 mm; in the data set on Syrian golden hamster [7], “Non-Toxic”.

In the case of `C[C@]12CC[C@H](OC(=O)C3CCCC3)CC1=CC[C@@H]1[C@@H]2CC[C@]2(C)C(C(=O)Cn3ccnc3)=CC[C@@H]12`, the IC50 entry in data set [1] is “Not Active”; in [2] (read-out: IC50), 35 nM. The inhibition entry in [3] is “inactive”. The “growth inhibition (GI)” value in the data set on PC-3, in the data set with MCF7 and in the data set on SK-LU-1 was “inactive” in each case. In addition, the Activity in the data set with Syrian golden hamster [4] is reported as 65.1 mg; in the data set on Syrian golden hamster [5] it was 143.7 mg; with Syrian golden hamster [6] it was 2 mm; in the data set with Syrian golden hamster [7], “Non-Toxic”.

Regarding `C[C@]12CC[C@H](OC(=O)C3CCCCC3)CC1=CC[C@@H]1[C@@H]2CC[C@]2(C)C(C(=O)Cn3ccnc3)=CC[C@@H]12`, the IC50 entry in data set [1] is “Not Active”; in [2] (read-out: IC50) it was 29.3 nM. Besides, the inhibition entry in [3] is “inactive”. Besides, the “growth inhibition (GI)” value in the data set on PC-3, in the data set with MCF7 and in the data set on SK-LU-1 was “inactive” each time. The Activity is on record as 54.3 mg in the data set with Syrian golden hamster [4], 143.68 mg with Syrian golden hamster [5], 2.4 mm in the data set on Syrian golden hamster [6] and “Non-Toxic” in the data set on Syrian golden hamster [7].

With `C[C@]12CC[C@H](OC(=O)C3CCC3)CC1=CC[C@@H]1[C@@H]2CC[C@]2(C)C(C(=O)Cn3ccnc3)=CC[C@@H]12`, the IC50 result in data set [1] was “Not Active”; in [2] (read-out: IC50), 76.4 nM. The inhibition entry in data set [3] is “inactive”. Moreover, the “growth inhibition (GI)” value in the data set on PC-3, with MCF7 and in the data set with SK-LU-1 was “inactive” in each case. Moreover, the Activity with Syrian golden hamster [4] is 71.3 mg; in the data set on Syrian golden hamster [5] it was 145.2 mg; with Syrian golden hamster [6] it was 3 mm; in the data set with Syrian golden hamster [7], “Non-Toxic”.
